From patent publication US4013662A, “Alkyl and benzyl 6,7-dialkoxy-2-methyl-4-oxo-1,2,3,4-tetrahydroquinoline-1-carboxylates” (Pfizer Inc., priority 1975, dated 1977)

Legend:
[1] = Rat Flinch Jump Test (suppression of the jump component); format: in vivo; design: unit not given here
From the text: D. Suppression of the "jump" component of the Flinch-Jump Test [Evans, Psychopharmacologia, 2, 318 (1961)].
The following results were obtained when the performance of the d-, l and dl- forms of a compound of the invention were compared in the Rat Flinch Jump Thresholds The control Jump Threshold using saline were 0.78 at 0.5 hr. and 0.92 at 2 hr.
The following results were obtained when 6,7-dimethoxy-2-methyl-4-oxo-1,2,3,4-tetrahydroquinoline, ethyl 6,7-dimethoxy-2-methyl-4-oxo-1,2,3,4-tetrahydroquinoline-1-carboxylate and benzyl 6,7-dimethoxy-2-methyl-4-oxo-1,2,3,4-tetrahydroquinoline-1-carboxylate were compared in the Rat Flinch Jump Test. The dosage of test compound was 56 mpk. Each of the compounds was in its racemic form.

[2] = Conditioned Avoidance Behavior (Maffi); format: in vivo; settings: 0.5 hr.
From the text: (§1) A. Conditioned Avoidance Behavior [Maffi, J. Pharmacol., 11, 129 (1959); Sidman, Science, 118, 157 (1953)].

[3] = Symptomatology (rotorod, inclined plane); format: in vivo, mice; settings: intraperitoneally; for Symptomatology, Inclined Plane: inability to remain on an inclined plane; for Symptomatology, Rotorod: inability to ride a rotating rod
Experimental: c. Symtomatology--Four groups of 3 mice were treated intraperitoneally with 31.6, 100, 316, or 1000 mg/kg of the test compound. At 1/2, 2, or 5 hours after treatment, symtomatological observations were made; observations were all-or-none, and classified into autonomic, muscular, reflex or behavioral categories. […] Symptoms interpreted as indicating tranquilizer activity included decreased spontaneous motor activity, inability to ride a rotating rod (rotorod), and inability to remain on an inclined plane.

[4] = Conditioned Avoidance Behavior (Sidman); format: in vivo
From the text: as §1

[5] = Sedation Test (jiggle cage); format: in vivo, male Sprague-Dawley rats; settings: oral, jiggle cage for 1 hr. from 1.5 hr.
From the text: B. Sedation Test -- The subjects were male Sprague-Dawley rats weighing approximately 200 g and fed and watered ad lib before the experiment. Eight rats were assigned to each treatment group, and each rat was used only once.
1.5 hr. after oral treatment, each rat was placed in a standard jiggle cage for 1 hr. In this device, the subject was confined in a 6 × 6 × 3.5 in. Plexiglas enclosure. The enclosure was attached to one end of a flexible steel arm. This configuration, all of which was housed in a soundproof, ventilated chamber, allowed the enclosure to jiggle slightly with any movement. A force displacement transducer mounted under the jiggle cage monitored any vertical movement of the subject. The output of the transducer was coupled to a strain-gauge amplifier and to an analog recorder. To provide digital data of movement/non-movement times a trigger circuit was constructed in which the output of the strain-gauge amplifier was attentuated and rectified to activate a relay whenever the subject moved. When the relay remained deenergized for 3 sec., a timer was activated. Movement by the subject energized the relay and stopped the timer until 3 sec. of immobility recurred. This 3 sec. criterion eliminated brief periods of inactivity observed even in active rats. […]

LD50 = settings: in vivo
Tail Flick Test = format: in vivo; settings: 100 mpk
From the text: H. Tail Flick Test [Witkin et al, Proc. Soc. Exp. Biol., 101, 377 (1959)].

[6] = PBQ Writhing (Suppression of Writhing Test); format: in vivo; settings: 100 mpk
From the text: F. Suppression of Writhing Test [Siegmund et al, Proc. Sec. Exp. Biol., 95, 729 (1957].

Escape Titration Test = format: in vivo; settings: p.o.
From the text: E. Escape Titration Test [Weiss et al, Science, 128, 1575 (1958) ].

Hot Plate Test = format: in vivo; settings: 100 mpk
From the text: G. Hot Plate Test [Eddy et al, J. Pharm. Exp. Ther., 107, 385 (1953)].

[7] = Mouse Tail Pinch Technique (modified Haffner procedure); format: in vivo, mice; settings: lack of an audible squeak
From the text: The activity of compounds of this invention as analgesic agents has also been shown by testing their effectiveness in a Mouse Tail Pinch Technique. This technique was a modification of the Haffner procedure [Deutsche Med. Wochenschrifte, 55, 731-732 (1929)] in which the mice were strongly pinched on the base of the tail. An audible squeak was elicited in normal non-drugged mice. Lack of an audible squeak was taken as indication of analgesic activity in drugged mice.

[8] = 56 mpk, 0.5 hr., racemic compounds compared (table 4)
[9] = 56 mpk, 2.0 hr., racemic compounds compared (table 4)
[10] = 17.5 mpk, 2 hr, d-, l- and dl- forms compared, saline control 0.92
[11] = 17.5 mpk, .5 hr, d-, l- and dl- forms compared, saline control 0.78
[12] = 32 mpk, 2 hr, d-, l- and dl- forms compared, saline control 0.92
[13] = 32 mpk, .5 hr, d-, l- and dl- forms compared, saline control 0.78
[14] = 56 mpk, 2 hr, d-, l- and dl- forms compared, saline control 0.92
[15] = 56 mpk, .5 hr, d-, l- and dl- forms compared, saline control 0.78

## COc1cc2c(cc1OC)C(=O)CC(C)N2 (racemic) [6,7-Dimethoxy-2-methyl-4-oxo-1,2,3,4-tetrahydroquinoline]
[1]; [8]
  Jump Threshold: 1.47
[1]; [9]
  Jump Threshold: 1.10

## COc1cc2c(cc1OC)N(C(=O)OCc1ccccc1)C(C)CC2=O (racemic) [Benzyl 6,7-Dimethoxy-2-methyl-4-oxo-1,2,3,4-tetrahydroquinoline-1-carboxylate]
[1]; [8]
  Jump Threshold: 1.47
[1]; [9]
  Jump Threshold: 1.21

## CCOC(=O)N1c2cc(OC)c(OC)cc2C(=O)CC1C (racemic) [Ethyl 6,7-Dimethoxy-2-methyl-4-oxo-1,2,3,4-tetrahydroquinoline-1-carboxylate]
[1]; [10]
  Jump Threshold: 0.98
[1]; [11]
  Jump Threshold: 1.26
[1]; [12]
  Jump Threshold: 1.18
[1]; [13]
  Jump Threshold: 1.38
[1]; [8]
  Jump Threshold: 1.58
[1]; [9]
  Jump Threshold: 1.42
[1]; [14]
  Jump Threshold: 1.45
[1]; [15]
  Jump Threshold: 1.58

## CCOC(=O)N1c2cc(OC)c(OC)cc2C(=O)CC1C (single isomer, unassigned) [d-ethyl 6,7-dimethoxy-2-methyl-4-oxo-1,2,3,4-tetrahydroquino] [d-Ethyl 6,7-Dimethoxy-2-methyl-4-oxo-1,2,3,4-tetrahydroquinoline-1-carboxylate]
[1]; [10]
  Jump Threshold: 0.98
[1]; [11]
  Jump Threshold: 1.26
[1]; [12]
  Jump Threshold: 1.38
[1]; [13]
  Jump Threshold: 1.45
[1]; [14]
  Jump Threshold: 1.45
[1]; [15]
  Jump Threshold: 1.51

## CCOC(=O)N1c2cc(OC)c(OC)cc2C(=O)CC1C (single isomer, unassigned) [l-ethyl 6,7-dimethoxy-2-methyl-4-oxo-1,2,3,4-tetrahydroquino] [l-Ethyl 6,7-Dimethoxy-2-methyl-4-oxo-1,2,3,4-tetrahydroquinoline-1-carboxylate]
[1]; [10]
  Jump Threshold: 0.92
[1]; [11]
  Jump Threshold: 0.92
[1]; [12]
  Jump Threshold: 0.86
[1]; [13]
  Jump Threshold: 0.85
[1]; [14]
  Jump Threshold: 0.86
[1]; [15]
  Jump Threshold: 1.05

## CCOC(=O)N1c2cc(OC)c(OC)cc2C(=O)CC1C (stereo not shown) [drawing 7]
[2]
  Conditioned Avoidance Behavior, Maffi: Active at 56, 32 and 10 mpk
[3]
  Symptomatology, Inclined Plane: 32-100 mpk
  Symptomatology, Rotorod: 3.2-10 mpk
[4]; 17.8 mpk
  Conditioned Avoidance Behavior, Sidman: 2 of 3 animals
[4]; 32 mpk
  Conditioned Avoidance Behavior, Sidman: Active in 3 of 3 animals
[5]; 10 mpk
  Sedation Test: Inactive at 10
[5]; 32 mpk
  Sedation Test: Active at 32 mpk

## COC(=O)N1c2cc(OC)c(OC)cc2C(=O)CC1C (stereo not shown) [drawing 8]
[3]
  Symptomatology, Inclined Plane: 100-316 mpk
  Symptomatology, Rotorod: 100-316 mpk

## CCCCOC(=O)N1c2cc(OC)c(OC)cc2C(=O)CC1C (stereo not shown) [drawing 9]
[3]
  Symptomatology, Inclined Plane: 100-316 mpk
  Symptomatology, Rotorod: 32-100 mpk

## COc1cc2c(cc1OC)N(C(=O)OCc1ccccc1)C(C)CC2=O (stereo not shown) [drawing 10]
[3]
  Symptomatology, Inclined Plane: 100-316 mpk
  Symptomatology, Rotorod: 100-316 mpk

## CCOC(=O)N1c2cc(OC)c(OC)cc2C(=O)CC1C (stereo not shown) [drawing 11]
LD50
  LD50: > 1000 mg/kg
[1]; 3.2 mpk i.p., 2 h
  Rat Flinch Jump Test, Jump Threshold: .6
[1]; 3.2 mpk i.p., .5 h
  Rat Flinch Jump Test, Jump Threshold: .8
[1]; 10 mpk i.p., 2 h, Run two
  Rat Flinch Jump Test, Jump Threshold: .8
[1]; 32 mpk i.p., 2 h
  Rat Flinch Jump Test, Jump Threshold: > 2.2
[1]; 32 mpk i.p., .5 h
  Rat Flinch Jump Test, Jump Threshold: > 2.2
Tail Flick Test; 2 h
  Tail Flick % Protected: 0%
Tail Flick Test; .5 h
  Tail Flick % Protected: 0%
[6]
  PBQ Writhing: Inactive at 100 mpk
Escape Titration Test
  Escape Titration: Active at 32 mpk (p.o.)
Hot Plate Test; 2 h
  Hot Plate % Protected: 0%
Hot Plate Test; .5 h
  Hot Plate % Protected: 0%

## COC(=O)N1c2cc(OC)c(OC)cc2C(=O)CC1C (stereo not shown) [drawing 12]
LD50
  LD50: > 1000 mg/kg
[1]; 32 mpk i.p., 2 h
  Rat Flinch Jump Test, Jump Threshold: 1.2
[1]; 32 mpk i.p., .5 h
  Rat Flinch Jump Test, Jump Threshold: 1.6
Tail Flick Test; 2 h
  Tail Flick % Protected: 0%
Tail Flick Test; .5 h
  Tail Flick % Protected: 0%
[6]
  PBQ Writhing: Inactive at 100 mpk
Hot Plate Test; 2 h
  Hot Plate % Protected: 0%
Hot Plate Test; .5 h
  Hot Plate % Protected: 0%

## CCCCOC(=O)N1c2cc(OC)c(OC)cc2C(=O)CC1C (stereo not shown) [drawing 13]
LD50
  LD50: 316 to 1000 mg/kg
[1]; 32 mpk i.p., 2 h
  Rat Flinch Jump Test, Jump Threshold: 1.2
[1]; 32 mpk i.p., .5 h
  Rat Flinch Jump Test, Jump Threshold: 1.6
Tail Flick Test; 2 h
  Tail Flick % Protected: 0%
Tail Flick Test; .5 h
  Tail Flick % Protected: 0%
[6]
  PBQ Writhing: Inactive at 100 mpk
Hot Plate Test; 2 h
  Hot Plate % Protected: 0%
Hot Plate Test; .5 h
  Hot Plate % Protected: 0%

## COc1cc2c(cc1OC)N(C(=O)OCc1ccccc1)C(C)CC2=O (stereo not shown) [drawing 14]
LD50
  LD50: > 1000 mg/kg
[6]
  PBQ Writhing: Inactive at 100 mpk

## CCOC(=O)N1c2cc(OC)c(OC)cc2C(=O)CC1C (stereo not shown) [drawing 15]
[7]
  ED50: > 100 mg/kg

## COC(=O)N1c2cc(OC)c(OC)cc2C(=O)CC1C (stereo not shown) [drawing 16]
[7]
  ED50: 100 to 316 mg/kg

## CCCCOC(=O)N1c2cc(OC)c(OC)cc2C(=O)CC1C (stereo not shown) [drawing 17]
[7]
  ED50: > 32 mg/kg
